Patent US9149424B2, “Compositions and methods for reducing hepatotoxicity associated with drug administration” (YALE UNIVERSITY, priority 2007, dated 2015)
“Also recorded” adds a separate entry of the source.

Columns and labels:
wild-type mice [1] = experiment: Acetaminophen (APAP) induced hepatotoxicity, survival over 72 hours; format: in vivo, mouse
Procedure: C57BL/6 mice were purchased from commercial sources. […] These mice have been described previously (39, 40). IL-1β was neutralized in by using the anti-IL-1β antibody from clone B122 (a gift of R. Schreiber, Washington University) at a dose of 0.2 mg/mouse iv twice a day for a total of 48 hours after giving APAP. Control mice received Armenian hamster isotype control antibody. For survival experiments animals were euthanized when they became moribund using criteria of lack of response to stimuli or lack of righting reflex. Animal protocols were approved by the Yale University animal care and use committee. [include references for IPAF−/− (M. Lara-Tejero et al. JEM 2006) and IL-18−/−. Need to add TLR9−/− and TLR3−/−]
(§1) APAP (Sigma, Mo.) solution was made fresh for each experiment in PBS at 20 mg/ml and heated in a water bath to 55° C. to dissolve. APAP was dosed at 500 mg/kg and injected I.P after 15 hrs of starvation. Animals were euthanized by ketamine/xylazine injection at 12 hours for collection of serum, isolation of liver lymphocytes or collection of liver tissue for histology, or they were observed every four hours for 72 hours until they reached criteria for euthanasia (lack of response to stimuli or lack of righting reflex).
(§2) Aspirin (Sigma, Mo.) was made fresh for each experiment. For dosing prior to APAP it was dissolved in single deionized water at 60 mg/l and heated to 42° C. with rapid stirring to dissolve, then rapidly placed in an ice water bath to cool. Aspirin in water was given to the mice 60-72 hours prior to APAP injection. Assuming water consumption of 3-5 ml per day this dose would be equivalent to a 300-500 mg dose in an 80 kg adult human. For co-administration of APAP and aspirin, aspirin was gavaged at a dose of 6 mg/kg in a volume of 100 ul of water immediately after ip injection of APAP. Clopidogrel (Gilead Pharmaceuticals, CA.) was dissolved in PBS at 6 mg/ml and administered by gavage of 100 ul, 30 mg/kg, every 24 hours beginning 48 hours prior and ending 24 hours after APAP injection. Cox-1 inhibitor (SC-560). SC-560 (Cayman chemical, MI) was dissolved at 50 mg/ml in DMSO and further dissolved in PBS in order to gavage a dose of 5 mg/kg in 100 ul.

[2] = tested on: pro-IL-1β transcript in THP1 cells; experiment: THP1 cells stimulated with LPS, real-time PCR pro-IL-1β; format: cell-based, human; conditions: THP1 cells incubated overnight with aspirin (1.5 mM, 0.15 mM), then LPS 10 μg/ml 8 hours
Procedure: The human monocytic cell line THP1 was maintained in RPMI with 10% FBS. Stimulation with LPS (Sigma, Mo.) was performed by plating cells at 5×10^5 per 24 well, incubating overnight with aspirin or control media prior to adding LPS at 10 μg/ml for 8 hours.

NALP3 inflammasome = experiment: Uric acid (MSU crystal) peritonitis, Gr-1 positive neutrophils in peritoneal lavage; format: in vivo, mouse; conditions: low dose aspirin (60 mg/l) in drinking water for three days before MSU 3 mg ip; lavage at 3 hours
Procedure: Peritonitis was induced with uric acid crystals as previously described by injecting 3 mg of MSU intraperitoneally per mouse (27). Three hours after injection peritoneal lavage was performed on mice euthanized by isoflurane inhalation. Neutrophil infiltration was evaluated by flow cytometry. The percent of Gr-1 (BD Pharmingen, CA) positive cells was multiplied by the total cell counts.

mice and rats = conditions: aspirin 200-600 mg/kg (dose range toxic to humans); cited from earlier work
wild-type mice [3] = experiment: APAP induced hepatotoxicity, serum ALT at 12 hours; format: in vivo, mouse; conditions: aspirin pre-treatment in drinking water; 12 hrs after APAP; P<0.04
Procedure: as §1
Aspirin (Sigma, Mo.) was made fresh for each experiment. For dosing prior to APAP it was dissolved in single deionized water at 60 mg/l and heated to 42° C. with rapid stirring to dissolve, then rapidly placed in an ice water bath to cool. Aspirin in water was given to the mice 60-72 hours prior to APAP injection. Assuming water consumption of 3-5 ml per day this dose would be equivalent to a 300-500 mg dose in an 80 kg adult human. For co-administration of APAP and aspirin, aspirin was gavaged at a dose of 6 mg/kg in a volume of 100 ul of water immediately after ip injection of APAP. […]
(§3) TLR9 antagonist (ODN2088, 50 microg×2) or PBS, were injected ip into wild-type mice immediately after and at 6 hours after APAP injection and total mouse liver was obtained 12 hours after APAP injection for quantitative Q-PCR for IL-1β. […]

pro-IL-1β transcript = experiment: Quantitative real-time PCR of total liver 12 hours after APAP, pro-IL-1β; format: in vivo, mouse; conditions: aspirin pre-treatment in drinking water
Procedure: as §1, §3
Q-PCR was performed for IL-1β and IL-18 using commercial primer-probe sets (Applied Biosystems, Framingham, Mass.) and the Applied Biosystem 7500 real-time PCR system. Expression of glyceraldehyde 3-phosphate dehydrogenase was used to standardize the samples, and the results were expressed as a ratio compared with untreated HSCs. Quantitative Real-time PCR for mRNA expression of IL-18, IL-1β, TNF-α and IFN-γ. […] Quantitative real-time PCR (Q-PCR) was performed for IL-18 and IL-1β using commercial primer-probe sets (Applied Biosystems, Calif.) and the Applied Biosystem 7500 real time PCR system. […]

TNF-α = experiment: Quantitative real-time PCR of total liver 12 hours after APAP, TNF-α; format: in vivo, mouse; conditions: aspirin pre-treatment
Procedure: as §1
(§4) Q-PCR was performed for IL-1β and IL-18 using commercial primer-probe sets (Applied Biosystems, Framingham, Mass.) and the Applied Biosystem 7500 real-time PCR system. Expression of glyceraldehyde 3-phosphate dehydrogenase was used to standardize the samples, and the results were expressed as a ratio compared with untreated HSCs. Quantitative Real-time PCR for mRNA expression of IL-18, IL-1β, TNF-α and IFN-γ. Total mouse liver was obtained 12 hours after APAP and cDNA was prepared. Quantitative real-time PCR (Q-PCR) was performed for IL-18 and IL-1β using commercial primer-probe sets (Applied Biosystems, Calif.) and the Applied Biosystem 7500 real time PCR system. Expression of GAPDH was used to standardize the samples, and the results were expressed as a ratio compared to control.

IFN-γ = experiment: Quantitative real-time PCR of total liver 12 hours after APAP, IFN-γ; format: in vivo, mouse; conditions: aspirin pre-treatment
Procedure: as §1, §4

pro-IL-18 transcript = experiment: Quantitative real-time PCR of total liver 12 hours after APAP, pro-IL-18; format: in vivo, mouse; conditions: aspirin pre-treatment in drinking water
Procedure: as §1, §4

IL-1β = experiment: ELISA for serum IL-1β after APAP; format: in vivo, mouse; conditions: APAP with vs without ASA in drinking water; p<0.02
Procedure: ELISA for serum IL1-β was carried out by standard protocols.

wild-type mice [4] = experiment: APAP induced hepatotoxicity, liver histology (H&E) at 12 hours; format: in vivo, mouse; conditions: aspirin 60 mg/l in drinking water three days before APAP; 12 hours after APAP
Procedure: as §1
as §2, with “SC-560 (Cayman chemical, MI) was dissolved at 50 mg/ml in DMSO and further dissolved in PBS in order to gavage a dose of 5 mg/kg in 100 ul.” left out

COc1ccc(-n2nc(C(F)(F)F)cc2-c2ccc(Cl)cc2)cc1 [SC-560]
protection against APAP toxicity (survival) (wild-type mice [1]; SC-560 5 mg/kg gavage twice daily from 60 hours before to 48 hours after APAP, n=10 each, P<0.97): did not protect

CC(=O)Oc1ccccc1C(=O)O [aspirin, acetylsalicylic acid]
LPS induced up-regulation of pro-IL-1β transcript [2]: reduced | neutrophil exudates in MSU peritonitis (NALP3 inflammasome): eightfold reduction | survival after APAP (wild-type mice [1]; aspirin 60 mg/l in drinking water 3 days before APAP 500 mg/kg ip, control n=13, aspirin n=17, P<0.02): markedly improved survival | survival (wild-type mice [1]; aspirin given concordantly with APAP, 6 mg/kg gavage, control 22%+/−19%, P<0.04): 43%+/−11% | liver injury from APAP (mice and rats): reduce liver injury | survival from APAP (mice and rats): not improve survival | serum ALT (wild-type mice [3]): significantly lower | increase in pro-IL-1β message by APAP, whole liver (pro-IL-1β transcript): reduced to normal levels | expression of TNF-α, whole liver (TNF-α): reduced | expression of IFN-γ, whole liver (IFN-γ): reduced | increase in pro-IL-18 message by APAP, whole liver (pro-IL-18 transcript): reduced to normal levels | serum IL-1β levels (IL-1β): significant reduction | liver histology (liver injury and hemorrhage) (wild-type mice [4]): significant reduction in APAP induced liver injury and hemorrhage; also recorded: markedly improved

COC(=O)[C@H](c1ccccc1Cl)N1CCc2sccc2C1 [clopidogrel]
protection against APAP toxicity (survival) (wild-type mice [1]; clopidogrel 30 mg/kg gavage every 24 hrs from 48 hours before to 24 hours after APAP, n=15 each, P<0.31): did not protect
